This passage reports IC50, GI50 and AC50 results from patent US20260285853A1, “COMPOUNDS AND METHODS FOR MODULATING SPLICING” (REMIX THERAPEUTICS INC., priority 2023, published 2026).

Common to all, as to assay type: cell-based
Test [1] has as its system HTT mRNA. Put plainly: Gene panel canonical junction qPCR assay, decrease in CJ mRNA, Table 3. The settings on record: decrease in canonical junction (CJ) mRNA, gene panel qPCR, Table 3. In short, it runs like this:
(§1)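 IC50 is the concentration giving 50% response in decrease of the canonical junction transcript, fitted with a 4-parameter logistic equation. Transcripts were quantified by RT-qPCR in A673 or K562 cells after 24 h exposure to compounds dosed up to 10 uM in 3-fold steps.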
A general note: Quantitative PCR measures a nucleic acid by following its amplification.

Test [2] concerns MYB mRNA. The test is described as above. The conditions noted are these: decrease in canonical junction (CJ) mRNA, gene panel qPCR, Table 3. In short, it runs like this:
as §1

The subject of test [3] is SH-SY5Y (human neuroblastoma) cells. Put plainly: Cell viability, Cell Titer Glo 2.0 assay. The conditions noted are these: read-out: Viability SHSY5Y.3 GI50. The essentials:
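Steps: serial DMSO dilution of compound, 1:100 dilution into medium, addition to cells (0.1% DMSO final). Incubate 72 h at 37 °C, 5% CO2. Assay with CellTiter-Glo 2.0 reagent.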

The test system of test [4] is HTT mRNA. Put plainly: Splicing RT-qPCR assay (THP), Table 2A. The conditions noted are these: Table 2A (THP); for AC50: AJ mRNA increase, read-out: HTT AJ (increase in alternative junction mRNA, AC50); for IC50: CJ mRNA decrease, read-out: HTT CJ (decrease in canonical junction mRNA, IC50).
Test [5] deals with MYB mRNA. Put plainly: Splicing RT-qPCR assay (THP), Table 2A. The settings on record: Table 2A (THP); for AC50: AJ mRNA increase, read-out: MYB AJ (increase in alternative junction mRNA, AC50); for IC50: CJ mRNA decrease, read-out: MYB CJ (decrease in canonical junction mRNA, IC50).

What is called IC50 is the midpoint of a concentration-inhibition curve. A word on the GI50: it is the concentration that inhibits growth by half. For orientation: AC50 means the midpoint of the concentration-response curve, whichever way the signal moves.

As for `COc1c(NC(=O)c2c(F)cc(N3CCC(NC45CC(C4)C5)CC3)c3cn(C)nc23)cn2cc(C)nc2c1F` [Compound 389, 4-[4-(1-bicyclo[1.1.1]pentanylamino)-1-piperidyl]-6-fluoro-N-(8-fluoro-7-methoxy-2-methylimidazo-[1,2-a]pyridin-6-yl)-2-methyl-indazole-7-carboxamide], the IC50 is 0.1 to 1 µM with HTT mRNA [1], less than 0.1 µM in the test on MYB mRNA [2], 0.1 to 1 µM with HTT mRNA [4] and less than 0.1 µM with MYB mRNA [5]. Also, the GI50 in test [3] is less than 0.1 µM. Besides, the AC50 was 0.1 to 1 µM with HTT mRNA [4] and less than 0.1 µM with MYB mRNA [5].

In the case of `CCNC1CCN(c2cc(F)c(C(=O)Nc3cn4cc(C)nc(C#N)c4n3)c3nn(C)cc23)CC1` [Compound 390, N-(8-cyano-6-methyl-imidazo[1,2-a]pyrazin-2-yl)-4-[4-(ethylamino)-1-piperidyl]-6-fluoro-2-methyl-indazole-7-carboxamide], the IC50 was more than 10 µM in the test with HTT mRNA [1], 0.1 to 1 µM with MYB mRNA [2], more than 10 µM in the test on HTT mRNA [4] and 0.1 to 1 µM in the test with MYB mRNA [5]. Besides, in test [3], the GI50 was 1 to 10 µM. In addition, the AC50 in the test with HTT mRNA [4] is more than 10 µM; in the test on MYB mRNA [5], less than 0.1 µM.

On to `CCNC1CCN(c2cc(F)c(C(=O)Nc3cn4cc(C)nc(Cl)c4n3)c3nn(C)cc23)CC1` [Compound 391, N-(8-chloro-6-methyl-imidazo[1,2-a]-pyrazin-2-yl)-4-[4-(ethylamino)-1-piperidyl]-6-fluoro-2-methyl-indazole-7-carboxamide], for which the IC50 in the test with HTT mRNA [1] is more than 10 µM; with MYB mRNA [2], less than 0.1 µM; in the test with HTT mRNA [4] it was more than 10 µM; in the test on MYB mRNA [5], less than 0.1 µM. The concentration for 50% growth inhibition (GI50) in test [3] was 0.1 to 1 µM. Further, the AC50 in the test with HTT mRNA [4] is more than 10 µM; in the test on MYB mRNA [5] it was less than 0.1 µM.

For the molecule `Cc1cn2cc(NC(=O)c3c(F)cc(N4CCC(NC5CC5)CC4)c4cn(C)nc34)nc2c(CN)n1` [Compound 392, N-[8-(aminomethyl)-6-methyl-imidazo[1,2-a]-pyrazin-2-yl]-4-[4-(cyclopropylamino)-1-piperidyl]-6-fluoro-2-methyl-indazole-7-carboxamide], the IC50 is more than 10 µM in the test with HTT mRNA [1], 1 to 10 µM with MYB mRNA [2], more than 10 µM in the test with HTT mRNA [4] and 1 to 10 µM with MYB mRNA [5]. In addition, in test [3], the GI50 is more than 10 µM. Besides, the AC50 in the test on HTT mRNA [4] is more than 10 µM; in the test on MYB mRNA [5], 1 to 10 µM.

With `Cc1cn2cc(NC(=O)c3c(F)cc(N4CCC(NC5CC5)CC4)c4cn(C)nc34)nc2c(CNS(C)(=O)=O)n1` [Compound 393, 4-(4-(cyclopropylamino)piperidin-1-yl)-6-fluoro-2-methyl-N-(6-methyl-8-(methylsulfonamidomethyl)imidazo[1,2-a]pyrazin-2-yl)-2H-indazole-7-carboxamide 2,2,2-trifluoroacetate], the IC50 with HTT mRNA [1] is more than 10 µM; in the test on MYB mRNA [2] it was 0.1 to 1 µM; in the test on HTT mRNA [4], more than 10 µM; in the test on MYB mRNA [5], 0.1 to 1 µM. Besides, the GI50 in test [3] lay in the range of 1 to 10 µM. For the same molecule, the figures for the AC50 with HTT mRNA [4] and with MYB mRNA [5] were more than 10 µM and 0.1 to 1 µM, respectively.

Consider `CCNC1CCN(c2ncc(C(=O)Nc3cn4cc(C)nc(C)c4n3)c3nn(C)cc23)CC1` [Compound 394, N-(6,8-dimethylimidazo[1,2-a]pyrazin-2-yl)-4-[4-(ethylamino)-1-piperidyl]-2-methyl-pyrazolo-[4,3-c]-pyridine-7-carboxamide], for which the IC50 in the test with HTT mRNA [1] fell in the range of 1 to 10 µM; in the test on MYB mRNA [2] it was 0.1 to 1 µM; with HTT mRNA [4], 1 to 10 µM; with MYB mRNA [5], 0.1 to 1 µM. Further, the 50% growth inhibitory concentration (GI50) in test [3] is more than 10 µM. For the same molecule, the AC50 in the test with HTT mRNA [4] was 1 to 10 µM; with MYB mRNA [5], less than 0.1 µM.

`COc1cc2nc(C)cn2cc1NC(=O)c1c(F)cc(N2CCC(NC3CC3)CC2)c2cn(C)nc12` [Compound 395, 4-[4-(cyclopropylamino)-1-piperidyl]-6-fluoro-N-(7-methoxy-2-methyl-imidazo[1,2-a]pyridin-6-yl)-2-methyl-indazole-7-carboxamide]: the IC50 in the test with HTT mRNA [1] was more than 10 µM; in the test with MYB mRNA [2], 0.1 to 1 µM; in the test on HTT mRNA [4] it was more than 10 µM; in the test with MYB mRNA [5], 0.1 to 1 µM. Further, the GI50 in test [3] was 0.1 to 1 µM. The AC50 was more than 10 µM in the test with HTT mRNA [4] and less than 0.1 µM with MYB mRNA [5].

Consider `COc1cc2nn(C)cc2cc1NC(=O)c1c(F)cc(N2CCC(NC3CC3)CC2)c2cn(C)nc12` [Compound 396, 4-[4-(cyclopropylamino)-1-piperidyl]-6-fluoro-N-(6-methoxy-2-methyl-indazol-5-yl)-2-methyl-indazole-7-carboxamide], for which the IC50 is 0.1 to 1 µM with HTT mRNA [1], less than 0.1 µM with MYB mRNA [2], 0.1 to 1 µM in the test with HTT mRNA [4] and less than 0.1 µM in the test on MYB mRNA [5]. For the same molecule, the GI50 in test [3] was less than 0.1 µM. The concentration at half-maximal activity (AC50) in the test with HTT mRNA [4] is 0.1 to 1 µM; in the test on MYB mRNA [5], less than 0.1 µM.

As to `COc1c(NC(=O)c2c(F)cc(N3CCC(NC4CC4)CC3)c3cn(C)nc23)cn2cc(C)nc2c1C` [Compound 397, 4-[4-(cyclopropylamino)-1-piperidy1]-6-fluoro-N-(7-methoxy-2,8-dimethyl-imidazo[1,2-a]pyridin-6-y1)-2-methyl-indazole-7-carboxamide], the IC50 in the test with HTT mRNA [1] was more than 10 µM; in the test on MYB mRNA [2] it was 1 to 10 µM; in the test on HTT mRNA [4], more than 10 µM; in the test with MYB mRNA [5] it was 1 to 10 µM. In test [3], the GI50 lay in the range of 1 to 10 µM. Moreover, the figures for the AC50 in the test on HTT mRNA [4] and in the test with MYB mRNA [5] were more than 10 µM and 1 to 10 µM, respectively.

For the molecule `COc1nc2nc(C)cn2cc1NC(=O)c1c(F)cc(N2CCC(NC3CC3)CC2)c2cn(C)nc12` [Compound 398, 4-[4-(cyclopropylamino)-1-piperidy1]-6-fluoro-N-(7-methoxy-2-methyl-imidazo-[1,2-a]pyrimidin-6-yl)-2-methyl-indazole-7-carboxamide], the IC50 with HTT mRNA [1] was 1 to 10 µM; in the test with MYB mRNA [2], less than 0.1 µM; in the test with HTT mRNA [4], 1 to 10 µM; in the test with MYB mRNA [5], less than 0.1 µM. Also, the GI50 in test [3] was in the range of 0.1 to 1 µM. Also, the AC50 was 1 to 10 µM in the test with HTT mRNA [4] and less than 0.1 µM with MYB mRNA [5].

With `Cc1cn2cc(NC(=O)c3c(F)cc(N4CCC(NC5CC5)CC4)c4cn(C)nc34)cc(Oc3ccccn3)c2n1` [Compound 399], the IC50 was 1 to 10 µM with HTT mRNA [1], 0.1 to 1 µM in the test on MYB mRNA [2], 1 to 10 µM in the test on HTT mRNA [4] and 0.1 to 1 µM with MYB mRNA [5]. Moreover, the GI50 in test [3] was in the range of 0.1 to 1 µM. Further, the results for the AC50 with HTT mRNA [4] and in the test on MYB mRNA [5] were 1 to 10 µM and less than 0.1 µM, respectively.

On to `CC(=O)NCc1nc(C)cn2cc(NC(=O)c3c(F)cc(N4CCC(NC5CC5)CC4)c4cn(C)nc34)nc12` [Compound 400, N-(8-(acetamido-methyl)-6-methylimidazo [1,2-a]-pyrazin-2-yl)-4-(4-(cyclopropylamino)-piper-idin-1-yl)-6-fluoro-2-meth-yl-2H-indazole-7-carbox-amide 2,2,2-trifluoro-acetate], for which the IC50 is more than 10 µM in the test on HTT mRNA [1], 1 to 10 µM with MYB mRNA [2], more than 10 µM in the test on HTT mRNA [4] and 1 to 10 µM in the test with MYB mRNA [5]. The GI50 in test [3] was more than 10 µM. Moreover, the AC50 with HTT mRNA [4] was more than 10 µM; with MYB mRNA [5] it was 1 to 10 µM.
